Data reported in patent US20110118337A1, “Method of Using Compositions Comprising MIR-192 and/or MIR-215 for the Treatment of Cancer” (Merck Sharp & Dohme Corp., priority 2008, published 2011).

System: HCT116 DICER^ex5 cells
Test: Gene expression profiling (Agilent 44K microarray) after transfection of miR-192/miR-215 duplex mimetics
Assay type: cell-based, human
Settings: 10 nM, vs mock-transfected
Protocol: Synthetic duplex mimetics of miR-192 and miR-215 (sequences shown in TABLE 1) or a control target Luciferase siRNA (Luc), shown in TABLE 1, were transfected (10 nM final concentration) into HCT116 DICER^ex5, a human colorectal cancer cell line with hypomorphic DICER function (Cummins, J. M., et al., PNAS 103:3687-3692 (2006)). The transfections were carried out using Lipofectamine RNAiMax (Invitrogen) per the manufacturer's instructions. At 10 and 24 hours post-transfection, total RNA was extracted and gene expression profiling was carried out with the Agilent 44K microarray in comparison to RNA isolated from mock-transfected HCT116DICER^ex5 cells. Microarray analysis was carried out as described in Linsley, P. S., et al., Mol Cell Biol 27:2240-2252 (2007). Gene expression data analysis was done either with the Rosetta Resolver gene expression analysis software (Version 7.1 Rosetta Biosoftware).

Substance: miR-215: Synthetic duplex mimetic of miR-215, guide AUGACCUAUGAAUUGACAGAC (SEQ ID NO:4), passenger SEQ ID NO:10 (sense CUGUCAAUUCAUAGGUCUUAU; listed as RNA, chemistry not given here; listed as Homo sapiens)
- BCL2 transcript fold change (10 hr): −1.09 fold change
- BRCA1 transcript fold change (10 hr): −1.04 fold change
- CDC7 transcript fold change (10 hr): −1.54 fold change
- CDC14A transcript fold change (10 hr): −1.05 fold change
- CDC73 transcript fold change (10 hr): −1.04 fold change
- CRK transcript fold change (10 hr): −1.43 fold change
- CTCF transcript fold change (10 hr): −1.53 fold change
- CUL5 transcript fold change (10 hr): −1.25 fold change
- DBF4B transcript fold change (10 hr): −1.07 fold change
- DEK transcript fold change (10 hr): −1.19 fold change
- DLG5 transcript fold change (10 hr): −1.89 fold change
- DTL transcript fold change (10 hr): −1.19 fold change
- EMP1 transcript fold change (10 hr): 1.11 fold change
- ERCC3 transcript fold change (10 hr): −1.25 fold change
- EXTL2 transcript fold change (10 hr): −1.32 fold change
- FGF2 transcript fold change (10 hr): −1.67 fold change
- HOXA10 transcript fold change (10 hr): −1.74 fold change
- HRH1 transcript fold change (10 hr): −1.52 fold change
- KIF14 transcript fold change (10 hr): 1.01 fold change
- KIF23 transcript fold change (10 hr): 1.01 fold change
- LMNB2 transcript fold change (10 hr): −1.55 fold change
- MACF1 transcript fold change (10 hr): −1.17 fold change
- MAD2L transcript fold change (10 hr): −1.31 fold change
- MCM3 transcript fold change (10 hr): −1.56 fold change
- MCM6 transcript fold change (10 hr): −1.04 fold change
- MCM10 transcript fold change (10 hr): −1.97 fold change
- MIS12 transcript fold change (10 hr): −1.28 fold change
- MKI67 transcript fold change (10 hr): −1.04 fold change
- MPHOSPH1 transcript fold change (10 hr): −1.46 fold change
- MTSS1 transcript fold change (10 hr): −1.07 fold change
- NBN transcript fold change (10 hr): −1.39 fold change
- NCAPH transcript fold change (10 hr): −1.02 fold change
- NEK1 transcript fold change (10 hr): −1.16 fold change
- NFIB transcript fold change (10 hr): −1.38 fold change
- NFYA transcript fold change (10 hr): −1.25 fold change
- NIN transcript fold change (10 hr): −1.12 fold change
- PAFAH1B1 transcript fold change (10 hr): −1.31 fold change
- PAPD5 transcript fold change (10 hr): −1.31 fold change
- PFTK1 transcript fold change (10 hr): 1.05 fold change
- PIM1 transcript fold change (10 hr): −1.13 fold change
- PLAU transcript fold change (10 hr): −1.77 fold change
- PLS3 transcript fold change (10 hr): −1.56 fold change
- POLQ transcript fold change (10 hr): −1.1 fold change
- POLS transcript fold change (10 hr): −1.17 fold change
- PPP1CA transcript fold change (10 hr): −1.76 fold change
- PRPF38A transcript fold change (10 hr): −1.09 fold change
- RACGAP1 transcript fold change (10 hr): −1.31 fold change
- RAD1 transcript fold change (10 hr): −1.12 fold change
- RAD21 transcript fold change (10 hr): −1.32 fold change
- RAD51 transcript fold change (10 hr): 1.05 fold change
- RAP1GAP transcript fold change (10 hr): −1.21 fold change
- RB1 transcript fold change (10 hr): −1.25 fold change
- SEPT10 transcript fold change (10 hr): −1.6 fold change
- SERTAD2 transcript fold change (10 hr): −1.09 fold change
- SH3BP4 transcript fold change (10 hr): −1.38 fold change
- SMARCB1 transcript fold change (10 hr): −1.42 fold change
- TDG transcript fold change (10 hr): −1.54 fold change
- TDP1 transcript fold change (10 hr): −1.5 fold change
- TOP1 transcript fold change (10 hr): −1.64 fold change
- TUBGCP3 transcript fold change (10 hr): −1.41 fold change
- USP1 transcript fold change (10 hr): −1.16 fold change
- UVRAG transcript fold change (10 hr): −1.17 fold change
- BCL2 transcript fold change (24 hr): −1.59 fold change
- BRCA1 transcript fold change (24 hr): −1.43 fold change
- CDC7 transcript fold change (24 hr): −2.04 fold change
- CDC14A transcript fold change (24 hr): −1.2 fold change
- CDC73 transcript fold change (24 hr): −1.1 fold change
- CRK transcript fold change (24 hr): −1.52 fold change
- CTCF transcript fold change (24 hr): −1.66 fold change
- CUL5 transcript fold change (24 hr): −1.37 fold change
- DBF4B transcript fold change (24 hr): −1.33 fold change
- DEK transcript fold change (24 hr): −1.42 fold change
- DLG5 transcript fold change (24 hr): −2.03 fold change
- DTL transcript fold change (24 hr): −1.46 fold change
- EMP1 transcript fold change (24 hr): 1.04 fold change
- ERCC3 transcript fold change (24 hr): −1.36 fold change
- EXTL2 transcript fold change (24 hr): −1.59 fold change
- FGF2 transcript fold change (24 hr): −2.12 fold change
- HOXA10 transcript fold change (24 hr): −2.57 fold change
- HRH1 transcript fold change (24 hr): −1.63 fold change
- KIF14 transcript fold change (24 hr): −1.53 fold change
- KIF23 transcript fold change (24 hr): −1.36 fold change
- LMNB2 transcript fold change (24 hr): −1.92 fold change
- MACF1 transcript fold change (24 hr): −1.55 fold change
- MAD2L transcript fold change (24 hr): −1.84 fold change
- MCM3 transcript fold change (24 hr): −1.96 fold change
- MCM6 transcript fold change (24 hr): −1.4 fold change
- MCM10 transcript fold change (24 hr): −2.67 fold change
- MIS12 transcript fold change (24 hr): −1.77 fold change
- MKI67 transcript fold change (24 hr): −1.52 fold change
- MPHOSPH1 transcript fold change (24 hr): −1.94 fold change
- MTSS1 transcript fold change (24 hr): −1.29 fold change
- NBN transcript fold change (24 hr): −1.41 fold change
- NCAPH transcript fold change (24 hr): −1.32 fold change
- NEK1 transcript fold change (24 hr): −1.35 fold change
- NFIB transcript fold change (24 hr): −1.91 fold change
- NFYA transcript fold change (24 hr): −1.18 fold change
- NIN transcript fold change (24 hr): −1.42 fold change
- PAFAH1B1 transcript fold change (24 hr): −1.6 fold change
- PAPD5 transcript fold change (24 hr): −1.22 fold change
- PFTK1 transcript fold change (24 hr): −1.28 fold change
- PIM1 transcript fold change (24 hr): −1.65 fold change
- PLAU transcript fold change (24 hr): −1.91 fold change
- PLS3 transcript fold change (24 hr): −1.84 fold change
- POLQ transcript fold change (24 hr): −1.23 fold change
- POLS transcript fold change (24 hr): −1.38 fold change
- PPP1CA transcript fold change (24 hr): −2.42 fold change
- PRPF38A transcript fold change (24 hr): −1.17 fold change
- RACGAP1 transcript fold change (24 hr): −1.84 fold change
- RAD1 transcript fold change (24 hr): −1.38 fold change
- RAD21 transcript fold change (24 hr): −1.52 fold change
- RAD51 transcript fold change (24 hr): −1.35 fold change
- RAP1GAP transcript fold change (24 hr): −1.35 fold change
- RB1 transcript fold change (24 hr): −1.39 fold change
- SEPT10 transcript fold change (24 hr): −1.95 fold change
- SERTAD2 transcript fold change (24 hr): −1.1 fold change
- SH3BP4 transcript fold change (24 hr): −1.67 fold change
- SMARCB1 transcript fold change (24 hr): −1.42 fold change
- TDG transcript fold change (24 hr): −1.55 fold change
- TDP1 transcript fold change (24 hr): −1.8 fold change
- TOP1 transcript fold change (24 hr): −1.76 fold change
- TUBGCP3 transcript fold change (24 hr): −1.73 fold change
- USP1 transcript fold change (24 hr): −1.38 fold change
- UVRAG transcript fold change (24 hr): −1.43 fold change
